# Laboratory results published in ChEMBL document CHEMBL1150225, “Cytotoxic cholestane glycosides from the bulbs of Ornithogalum saundersiae” (J Nat Prod, 2001).
# What was measured:
# Format in all cases: functional
# [1] = system: NCI-H522; test: Cytotoxicity against human NCI-H522 cells
# [2] = system: OVCAR-8; test: Cytotoxicity against human OVCAR8 cells
# [3] = system: CCRF-CEM; test: Cytotoxicity against human CCRF-CEM cells
# [4] = system: HOP-62; test: Cytotoxicity against human HOP62 cells
# [5] = Cytotoxicity against human […] cells
# [6] = system: RXF 393; test: Cytotoxicity against human RXF393 cells
# [7] = system: OVCAR-3; test: Cytotoxicity against human OVCAR-3 cells
# [8] = system: MDA-MB-435; test: Cytotoxicity against human MDA-MB-435 cells
# [9] = system: HT-29; test: Cytotoxicity against human HT-29 cells
# [10] = system: K562; test: Cytotoxicity against human K562 cells
# [11] = system: MOLT-4; test: Cytotoxicity against human MOLT4 cells
# [12] = system: SN12C; test: Cytotoxicity against human SN12C cells
# [13] = system: SF-295; test: Cytotoxicity against human SF295 cells
# [14] = system: Malme-3M; test: Cytotoxicity against human MALME-3M cells
# [15] = system: UACC-257; test: Cytotoxicity against human UACC257 cells
# [16] = system: U-251; test: Cytotoxicity against human U251 cells
# [17] = read-out: pLC50 (the source's name) (converted)
smiles,measurement,setting,value
COc1ccc(C(=O)O[C@H]2[C@H](O[C@@H]3[C@@H](OC(C)=O)[C@H](O[C@H]4C[C@H]5[C@@H]6CC=C7C[C@@H](O)CC[C@]7(C)[C@H]6CC[C@]5(C)[C@@]4(O)[C@H](C)C(=O)CCC(C)C)OC[C@@H]3O)OC[C@@H](O)[C@@H]2O)cc1,GI50,[1],0.363 nM
same,CC50,[1]; [17],324 nM
same,TGI,[1]; read-out: pTGI (converted),5.37 nM
same,GI50,[2],15.1 nM
same,CC50,[2]; [17],5370 nM
same,TGI,[2]; read-out: pTGI (converted),1580 nM
same,GI50,[3],0.1 nM
same,CC50,[3]; [17],1200 nM
same,TGI,[3]; read-out: pTGI (converted),7.08 nM
same,GI50,[4],0.159 nM
same,CC50,[4]; [17],129 nM
same,TGI,[4]; read-out: pTGI (converted),2 nM
same,GI50,[5],0.038 nM
same,CC50,[5]; [17],2090 nM
same,TGI,[5]; read-out: pTGI (converted),0.219 nM
same,GI50,[6],0.0708 nM
same,CC50,[6]; [17],407 nM
same,TGI,[6]; read-out: pTGI (converted),18.2 nM
same,GI50,[7],9.55 nM
same,CC50,[7]; [17],4680 nM
same,TGI,[7]; read-out: pTGI (converted),2000 nM
same,GI50,[8],0.575 nM
same,CC50,[8]; [17],407 nM
same,TGI,[8]; read-out: pTGI (converted),8.91 nM
same,GI50,[9],0.363 nM
same,CC50,[9]; [17],3720 nM
same,TGI,[9]; read-out: pTGI (converted),302 nM
same,GI50,[10],0.219 nM
same,CC50,[10]; [17],10000 nM
same,TGI,[10]; read-out: pTGI (converted),14.1 nM
same,GI50,[11],0.0977 nM
same,CC50,[11]; [17],457 nM
same,TGI,[11]; read-out: pTGI (converted),11 nM
same,GI50,[12],1290 nM
same,CC50,[12]; [17],6760 nM
same,TGI,[12]; read-out: pTGI (converted),2880 nM
same,GI50,[13],0.0479 nM
same,CC50,[13]; [17],30.2 nM
same,TGI,[13]; read-out: pTGI (converted),2.29 nM
same,GI50,[14],0.631 nM
same,CC50,[14]; [17],2400 nM
same,TGI,[14]; read-out: pTGI (converted),2.29 nM
same,GI50,[15],0.933 nM
same,CC50,[15]; [17],40.7 nM
same,TGI,[15]; read-out: pTGI (converted),1.29 nM
same,GI50,[16],0.0257 nM
same,CC50,[16]; [17],2510 nM
same,TGI,[16]; read-out: pTGI (converted),51.3 nM
